# What was measured:
# A375 = experiment: Cancer cell growth inhibition (CellTiter-Glo), A375; assay type: cell-based, Human; conditions: Homo sapiens, A-375; Melanoma, A375, 72 h treatment
# Protocol: (§1) Cell culture-based assays were used to evaluate the ability of compounds of the invention to inhibit cancer cell growth.
# (§2) Cells were obtained from the American Type Culture Collection (ATCC). Cells were cultured at 37° C. with 5% CO2 in the appropriate growth medium (see table below), and harvested respectively during the logarithmic growth period and counted with hemocytometer. The cell viability was examined by trypan blue exclusion. Cell concentrations were adjusted to 5.56×10^4 cells/ml with respective medium.
# (§3) Stock solutions of test compounds and positive drugs Doxorubicin (Zhejiang, Haizheng, China), Cisplatin (Nanjing Zhiyao, China) and Mitomycin (Zhejiang, Haizheng, China) were prepared in dimethyl sulphoxide (DMSO) or PBS at 20 mM.
# (§4) In order to determine the IC50 for each compound, experiments were carried out in 96-well plates and the cell lines seeded at a density of 5,000 cells/well. […] All treatments were performed in triplicate. 10 μl of drug solution was added to each well and incubated for 72 hours. At the end of the incubation, 100 μl of the CellTiter-Glo Reagent were added to each well and the contents were mixed for 2 munites on an orbital shaker to induce cell lysis. The plate was incubated at room temperature for 10 minutes to stabilize luminiscent signal, and luminiscent was recorded. […] In order to calculate IC50 values, dose-responsive curves were fitted using nonlinear regression model with a sigmoidal dose response.
# Colo205 = experiment: Cancer cell growth inhibition (CellTiter-Glo), Colo205; assay type: cell-based; conditions: Homo sapiens, COLO 205; Colorectal Cancer, Colo205, 72 h treatment
# Protocol: as §1, §2, §3, §4
# Human HDAC11 = target: T1, Human HDAC11 (Homo sapiens, UniProt Q96DB2); experiment: In vitro HDAC11 inhibition, fluorogenic peptide assay; assay type: biochemical; conditions: for IC50: read-out: IC50 (nM) of enzyme activity HDAC11
# T1 construct: GST (N); purchased BioMol SE-560
# T1 sequence (Q96DB2 1-347): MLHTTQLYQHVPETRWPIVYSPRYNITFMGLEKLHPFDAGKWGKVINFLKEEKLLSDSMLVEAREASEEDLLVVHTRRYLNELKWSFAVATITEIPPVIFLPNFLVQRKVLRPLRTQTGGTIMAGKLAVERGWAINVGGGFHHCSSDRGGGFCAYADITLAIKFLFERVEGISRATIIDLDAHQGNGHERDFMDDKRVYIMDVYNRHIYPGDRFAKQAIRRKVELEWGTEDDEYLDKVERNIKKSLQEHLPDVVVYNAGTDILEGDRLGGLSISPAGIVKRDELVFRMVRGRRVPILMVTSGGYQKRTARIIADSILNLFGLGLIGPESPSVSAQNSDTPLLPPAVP
# Protocol: All HDAC assays were performed using acetylated AMC-labeled peptide substrate: • Substrate for isoforms HDAC1, 2, 3, 4, 5, 6, 7, 9, 10, 11 and HeLa nuclear extract assays: Acetylated fluorogenic peptide from p53 residues 379-382 (RHKKAc) (BioMol. Cat. # KI-104). • Substrate for HDAC8 assays: Acetylated fluorogenic peptide from p53 residues 379-382 (RHKAcKAc) (BioMol. Cat. # KI-178).
# Enzymes: • HDAC1 assay: 75 nM Human HDAC1 (GenBank Accession No. NM_004964): Full length with C-terminal GST tag, MW=79.9 kDa, expressed by baculovirus expression system in Sf9 cells (BioMol. Cat. # SE-456). • HDAC2 assay: 5 nM Human HDAC2 (GenBank Accession No. Q92769): Full length with C-terminal His tag, MW=60 kDa, expressed by baculovirus expression system in Sf9 cells (BioMol. Cat. # SE-500). • HDAC3 assay: 2.3 nM Human HDAC3/NcoR2 (GenBank Accession No. NM_003883 for HDAC3, GenBank Accession No.NM_006312 for NcoR2): Complex of human HDAC3, full length with C-terminal His tag, MW=49.7 kDa, and human NCOR2, N-terminal GST tag, MW=39 kDa, co-expressed in baculovirus expression system (BioMol. Cat. # SE-507). • HDAC4 assay: 266 nM Human HDAC4 (GenBank Accession No. NM_006037): Amino acids 627-1085 with N-terminal GST tag, MW=75.2 kDa, expressed in baculovirus expression system (BioMol, Hamburg, Germany). • HDAC5 assay: 588 nM Human HDAC5 (GenBank Accession No. NM_001015053): Full length with Nterminal GST tag, MW=150 kDa, expressed by baculovirus expression system in Sf9 cells (BioMol, Hamburg, Germany). • HDAC6 assay: 13 nM Human HDAC6 (GenBank Accession No. BC069243): Full length with N-terminal GST tag, MW=159 kDa, expressed by baculovirus expression system in Sf9 cells (BioMol. Cat. # SE-508). • HDAC7 assay: 962 nM Human HDAC7 (GenBank Accession No. AY302468): Amino acids 518-end with N-terminal GST tag, MW=78 kDa, expressed in baculovirus expression system (BioMol, Hamburg, Germany). • HDAC8 assay: 119 nM Human HDAC8 (GenBank Accession No. NM018486): Full length, MW=42 kDa, expressed in an E. coli expression system (BioMol. […]
# The reactions were carried out in a 96-well microplate for fluorometry in a 50 μl reaction volume. […] The reaction was allowed to develop for 45 minutes at 30° C. with 5% CO2; then the fluorescent signal was measured with an excitation wavelength at 360 nm and an emission wavelength at 460 nm in a microplate-reading fluorometer (GeminiXS; Molecular Devices, Sunnyvale, Calif.). […] IC50 was calculated by fitting the experimental data to a dose-response curve. […]
SMILES,IC50 (A375) [µM],IC50 (Colo205) [µM],IC50 (Human HDAC11) [nM],Selectivity against HDAC6 (IC50 HDACx/IC50 HDAC6) HDAC11 (Human HDAC11; IC50 HDAC11/IC50 HDAC6)
"O=C(CCCCCNC(=O)c1[nH]c(-c2ccccc2)cc1-c1ccc(O)cc1)NO [Example 1, N-(6-(hydroxyamino)-6-oxohexyl)-3-(4-hydroxyphenyl)-5-phenyl-1H-pyrrole-2-carboxamide]",2.05,1.87,,
"COc1ccc(-c2cc(-c3ccccc3)[nH]c2C(=O)NCCCCCC(=O)NO)cc1 [Compound A, N-[6-(hydroxyamino)-6-oxohexyl]-3-(4-methoxyphenyl)-5-phenyl-1H-pyrrole-2-carboxamide, reference compound]",,,680,34

# Next, values leading:
IC50 (A375) [µM],IC50 (Colo205) [µM],IC50 (Human HDAC11) [nM],Selectivity against HDAC6 (IC50 HDACx/IC50 HDAC6) HDAC11 (Human HDAC11; IC50 HDAC11/IC50 HDAC6),SMILES
3.64,0.59,18,,"O=C(CCCCCNC(=O)c1[nH]c(-c2ccc(O)cc2)cc1-c1ccoc1)NO [Example 5, 3-(3-furyl)-N-(5-(hydroxycarbamoyl)pentyl)-5-(4-hydroxy-phenyl)-1H-pyrrole-2-carboxamide]"
4.07,1.82,,,"O=C(CCCCCNC(=O)c1[nH]c(-c2ccc(O)cc2)cc1-c1ccccc1)NO [Example 2, N-(6-(hydroxyamino)-6-oxohexyl)-5-(4-hydroxyphenyl)-3-phenyl-1H-pyrrole-2-carboxamide]"
3.2,0.87,55,,"O=C(CCCCCNC(=O)c1[nH]c(-c2ccc(O)cc2)cc1-c1ccsc1)NO [Example 6, N-(5-(hydroxycarbamoyl)pentyl)-5-(4-hydroxyphenyl)-3-(3-thienyl)-1H-pyrrole-2-carboxamide]"
